Reference: patent US20060135443A1, “Use of Na*/K*-ATPase inhibitors and antagonists thereof” (Bionaut Pharmaceuticals, Inc., priority 2004, published 2006)
pIC50, pKd: −log10 of the molar value. Entries after “also recorded” stand apart in the source; their conditions may differ.

Columns and labels:
[1] = biological target: purified sodium, potassium ATPase enzyme (Na-K ATPase); details: read-out: IC50, displaced ouabain from its binding sites; Ferrari et al. 1998; cited from earlier work
[2] = system: other receptors involved in blood pressure regulation or hormonal control; details: Ferrari et al. 1998; cited from earlier work
[3] = system: A549 (NSCLC) Sentinel Line; assay: Sentinel Line reporter assay (FACS, FDG); type: cell-based, human; details: 40 hrs; for cell death / reporter activity: agent alone; for cell death: Sentinel Lines; for reporter activity: mitoxantrone 8 nM, paclitaxel 1.5 nM, carboplatin 15 μM, gemcitabine 2.5 nM, Iressa 4 μM
Description: The expression level of beta-galactosidase gene in sentinel lines was determined by using a fluorescent substrate fluorescein di-B-D-Galactopyranside (FDG, Marker Gene Tech, #M0250) introduced into cells by hypotonic shock. Cleavage by beta-galactosidase results in the production of free fluorescein, which is unable to cross the plasma membrane and is trapped inside the beta-gal positive cells. Briefly, the cells to be analyzed are trypsinized, and resuspended in PBS containing 2 mM FDG (diluted from a 10 mM stock prepared in 8:1:1 mixture of water: ethanol: DMSO). The cells were then shocked for 4 minutes at 37° C. and transferred to FACS tubes containing cold 1×PBS on ice. Samples were kept on ice for 30 minutes and analyzed by FACS in FL1 channel.
Sentinel Line cells with beta-galactosidase reporter gene were plated at 1×10^5 cells/10 cm dish. […] After 40 hrs, the cells were trypsinized and the expression level of reporter gene was determined by FDG loading.
In experiments of FIG. 10, the A549 sentinel line was incubated with Gemcitabine in the presence or absence of indicated Bionaut compounds (including the cardiac glycoside compound BNC4) for 40 hrs. The reporter activity was measured by FACS analysis.

cancer cell lines = assay: proliferation of cancer cell lines; type: cell-based; details: for decrease of concentration effective for inhibiting proliferation of cancer cells: in combination with a steroid signal modulator (Casodex)
Text: The concentration at which a cardiac glycoside is effective as part of an antiproliferative treatment may be further decreased by combination with an additional agent that negatively regulates HIF-responsive genes, such as a redox effector or a steroid signal modulator. […] Therefore, in certain embodiments, the invention provides combination therapies of cardiac glycosides with, for example, steroid signal modulators and/or redox effectors. Additionally, cardiac glycosides may be combined with radiation therapy, taking advantage of the radiosensitizing effect that many cardiac glycosides have.

HIF-1α [4] = assay: HIF-1α Western blot in tumor cells; type: cell-based, human; details: Hep3B, Caki-1 or Panc-1 cells under hypoxia
Description: For HIF1-alpha Western blots, Hep3B cells were seeded in growth medium at a density of 7×10^6 cells per 100 mm dish. […] Samples were fractionated on 3-8% Tris-Acetate gel (Invitrogen NUPAGE system) by sodium dodecyl sulfate (SDS)-polyacrylamide gel electropherosis and transferred onto nitrocellulose membrane. […] Anti-Beta-actin monoclonal antibody (Abcam, ab6276-100) was used at a 1:5000 dilution with a 30-minute incubation at room temperature.
The cells were lysed and proteins were resolved by SDS-PAGE and transferred to a nylon membrane.
(§1) Thirty minutes prior to the termination of incubation period, 2,7-dichlorofluorescin diacetate (CFH-DA, […]) was added to the cells and incubated for the last 30 min at 37° C. The ROS levels were determined by FACS analysis.

HIF-1α [5] = assay: HIF-1α induced under normoxia by PHD inhibitor L-mimosone, Western blot; type: cell-based, human; details: Hep3B cells, 200 μM L-mimosone, 18 h
Description: Abundance of HIF1α and β-actin was determined by western blotting.

VEGF = VEGF secretion in tumor cells; type: cell-based
[6] = cited from earlier work; for max. plasma concentration: in vivo
[7] = system: A549(ROS) tumor cell line; assay: ROS levels by FACS; type: cell-based, human; details: normoxia, 4 hrs
Description: as §1

[8] = system: Panc-1 human pancreatic tumors; assay: Panc-1 human pancreatic tumor xenograft; type: in vivo, nude mice; details: Gemcitabine 40 mg/kg q3d×4; for Final Tumor weight Day 25 (Mean): BNC1 20 mg/ml s.c. osmotic pump 0.5 μl/hr, n=8; for % TGI: Day 25, BNC1 20 mg/ml s.c. C.I.
Description: (§2) Female nude mice (nu/nu) between 5 and 6 weeks of age weighing approximately 20 g were implanted subcutaneously (s.c.) by trocar with fragments of human tumors harvested from s.c. grown tumors in nude mice hosts. When the tumors were approximately 60-75 mg in size (about 10-15 days following inoculation), the animals were pair-matched into treatment and control groups. Each group contains 8-10 mice, each of which was ear tagged and followed throughout the experiment.
(§3) The administration of drugs or controls began the day the animals were pair-matched (Day 1). Pumps (Alzet® Model 2002) with a flow rate of 0.5 μl/hr were implanted s.c. between the shoulder blades of each mice. Mice were weighed and tumor measurements were obtained using calipers twice weekly, starting Day 1. These tumor measurements were converted to mg tumor weight by standard formula, (W^2×L)/2. The experiment is terminated when the control group tumor size reached an average of about 1 gram. Upon termination, the mice were weighed, sacrificed and their tumors excised. The tumors were weighed and the mean tumor weight per group was calculated.
The control animals received pumps containing vehicle (50% DMSO in DMEM). The mice treated with standard chemotherapy agent received intra-peritoneal injections of Gemcitabine at 40 mg/kg every 3 days for 4 treatments (q3d×4). Each data point represent average tumor weight (n=8) and error bars indicate SEM.
Gem was also included in the experiment as a comparison.

[9] = system: Caki-1 human renal cancer xenograft; assay: Caki-1 human renal cancer xenograft; type: in vivo, nude mice; details: for Final Tumor weight Day 22 (Mean): BNC1 20 mg/ml s.c. pump 0.5 μl/hr, n=10; for Final Tumor weight Day 22 (Mean) / % TGI: Cytoxan 100 or 300 ip; for % TGI: Day 22, BNC1 20 mg/ml s.c. C.I.
Description: as §2, §3
Cytoxan (q1d×1) was injected at 100 mg/kg (Cyt 100) or 300 mg/kg (Cyt 300).

[10] = system: A549 human non-small-cell-lung carcinoma; assay: A549 human non-small-cell-lung carcinoma xenograft; type: in vivo, nude mice; details: for animals with tumor at the end of the experiment: 8 animals per group; for % Weight Change at Day 38 / Final Tumor weight Day 38 (Mean) / % TGI: Carboplatin 100 mg/kg ip qd×1; for % Weight Change at Day 38 / Final Tumor weight Day 38 (Mean): n=8; for % TGI: Day 38, BNC1 20 mg/ml s.c. C.I.
Description: as §2, §3
Carboplatin (q1d×1) was injected at 100 mg/kg (Carb).

[11] = biological target: Na^+/K^+-ATPase α peptide isoforms; details: four α peptide isoforms, almost all mammalian species; cited from earlier work

In the case of `CC12CCC(O)CC1CCC1C2CCC2(C)C(O)(c3ccoc3)CCC12O` (stereo not drawn) [PST 2238, 17beta-(3-furyl)-5beta-androstane-3beta, 14beta, 17alpha-triol], the pIC50 [1] is listed as 5.77 and the “interaction with other receptors” value [2] is listed as “without interacting”.

For `O=C1c2c(O)ccc(O)c2C(=O)c2c(NCCNCCO)ccc(NCCNCCO)c21` [mitoxanthrone, mitoxantrone], the cell death [3] was “increases” and the reporter activity [3] was “increases”.

In the case of `C[C@@H]1O[C@@H](O[C@@H]2C=C3CC[C@@H]4[C@H](CC[C@]5(C)[C@@H](c6ccc(=O)oc6)CC[C@]45O)[C@@]3(C)CC2)[C@H](O)[C@H](O)[C@H]1O` [BNC4, proscillaridin], the “decrease of concentration effective for inhibiting proliferation of cancer cells” value (cancer cell lines) was 5 fold, the IC50 (cancer cell lines; test system not named at the place, read-out: predicted IC50) was 2 to 8 ng/mL and the “Gemcitabine-induced stress response (reporter activity)” value ([3]; incubated with Gemcitabine plus compound) was “significantly shift the reporter activity to the left”. For the same compound, the “potency in inhibiting HIF-1α expression relative to BNC1” value (HIF-1α [4]) was “about 10 times”, the “HIF-1α accumulation induced by L-mimosone” value (HIF-1α [5]) was “blocks HIF-1α induction; also recorded: eliminated HIF-1α accumulation” and the “secretion of the angiogenesis factor VEGF” value (VEGF) was “inhibits”. For the same compound, the “plasma half-life in human” value ([6]; according to the literature) was “about 40 hours” and the max. plasma concentration [6] was “about 0.001 μg/mL”.

For `C[C@@H]1O[C@@H](O[C@H]2C[C@@H](O)[C@]3(CO)[C@H]4[C@H](O)C[C@]5(C)[C@@H](C6=CC(=O)OC6)CC[C@]5(O)[C@@H]4CC[C@]3(O)C2)[C@H](O)[C@H](O)[C@H]1O` [BNC1, ouabain], the “decrease of concentration effective for inhibiting proliferation of cancer cells” value (cancer cell lines) was 5 fold, the ROS production [7] was “induces ROS production” and the “secretion of the angiogenesis factor VEGF” value (VEGF) was “inhibits”. For the same compound, the “Final Tumor weight Day 25 (Mean)” value [8] was 200 mg, the “tumor growth (in words)” value ([8]; BNC1 20 mg/ml s.c. pump) was “significantly reduce tumor growth” and the “% TGI” value [8] was 82.15%. The “Final Tumor weight Day 22 (Mean)” value [9] was 314.9 mg, the “anti-tumor activity (in words)” value ([9]; BNC1 20 mg/ml s.c. pump, Cytoxan 100 or 300 mg/kg) was “potent anti-tumor agent when used alone” and the “% TGI” value [9] was 81.45%. The “animals with tumor at the end of the experiment” value [10] was “none of the experimental animals showed any signs of tumor”, the “anti-tumor activity (in words)” value ([10]; BNC1 20 mg/ml s.c. pump, Carboplatin 100 mg/kg) was “potent anti-tumor activity” and the “% Weight Change at Day 38” value ([10]; BNC1 20 mg/ml s.c. pump) was 21%. The “Final Tumor weight Day 38 (Mean)” value ([10]; BNC1 20 mg/ml s.c. pump) was 0.0 mg, the “% TGI” value [10] was 100.00% and the pKd [11] was ≥ 9.00. The max. plasma concentration [6] was “about 0.03 μg/mL”.

With `CC(=O)O[C@H]1C(=O)[C@@]2(C)[C@H]([C@H](OC(=O)c3ccccc3)[C@]3(O)C[C@H](OC(=O)[C@H](O)[C@@H](NC(=O)c4ccccc4)c4ccccc4)C(C)=C1C3(C)C)[C@]1(OC(C)=O)CO[C@@H]1C[C@@H]2O` [paclitaxel] the cell death [3] was “increases” and the reporter activity [3] was “increases”.

With `O=P1(N(CCCl)CCCl)NCCCO1` (centres unmarked) [Cytoxan] the “Final Tumor weight Day 22 (Mean)” value [9] was 769 mg, the “Final Tumor weight Day 22 (Mean)” value ([9]; listed as Cytoxan300) was 93.7 mg and the “% TGI” value [9] was 54.70%. For the same compound, the “% TGI” value ([9]; listed as Cytoxan300) was 94.48%.

In the case of `Nc1ccn([C@@H]2O[C@H](CO)[C@@H](O)C2(F)F)c(=O)n1` [Gemcitabine], the reporter activity [3] was “elevated reporter activity”, the “Final Tumor weight Day 25 (Mean)” value [8] was 701.3 mg and the “% TGI” value [8] was 37.40%.

In the case of `N.N.O=C([O-])C1(C(=O)[O-])CCC1.[Pt+2]` [Carboplatin], the cell death [3] was “increases”, the reporter activity [3] was “increases” and the “animals with tumor at the end of the experiment” value [10] was “all 8”. The “% Weight Change at Day 38” value ([10]; BNC1 20 mg/ml s.c. pump) was 16%, the “Final Tumor weight Day 38 (Mean)” value ([10]; BNC1 20 mg/ml s.c. pump) was 509.75 mg and the “% TGI” value [10] was 39.50%.

With `COc1cc2ncnc(Nc3ccc(F)c(Cl)c3)c2cc1OCCCN1CCOCC1` [Iressa] the reporter activity [3] was “reduction”.
